Literature values in patent publication US20240207289A1 (priority 2022, published 2024).

Target: Cannabinoid-2 (CB2R) receptor (Homo sapiens, UniProt P34972)
Sequence (P34972 whole entry): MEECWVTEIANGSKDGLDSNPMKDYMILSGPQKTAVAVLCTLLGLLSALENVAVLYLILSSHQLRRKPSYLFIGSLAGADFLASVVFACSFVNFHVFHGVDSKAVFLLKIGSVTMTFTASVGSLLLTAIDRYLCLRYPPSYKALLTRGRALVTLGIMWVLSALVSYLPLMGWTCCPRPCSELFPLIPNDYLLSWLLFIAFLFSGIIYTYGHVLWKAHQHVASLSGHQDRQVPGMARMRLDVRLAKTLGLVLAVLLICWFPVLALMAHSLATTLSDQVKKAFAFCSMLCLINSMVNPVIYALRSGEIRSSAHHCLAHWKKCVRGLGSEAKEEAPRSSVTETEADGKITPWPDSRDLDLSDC

Structure (SMILES): CCCCCc1cc(O)c2c(c1)OC(C)(C)[C@@H]1CCC(C)=C[C@@H]21 [THC, delta-9-tetrahydrocannabinol]
- activity at Cannabinoid-2 receptor: weak partial agonist activity
